Assay results reported in patent publication US11326992B2 (priority 2016, dated 2022).

Experiments:
[1] = morphine value marked (base); cited from earlier work
[2] = Short term on-card stability; details: day 28, stored in the presence of air (RT+Air and −20° C.+Air)
[3] = Blood:Plasma binding ratio of guanfacine test sample; format: in vitro ADME; details: whole blood sample; read-out: Blood:Plasma binding ratio (Ke/p)
Experimental: The multilayer device of the invention was tested using a known hypertension and ADHD drug, guanfacine, with its [^13C, ^15N3] internal standard, Guanfacine (C9H9Cl2N3O) has a monoisotopic mass of 245.0123 Da, while the internal standard [^13C, ^15N3]-guanfacine (^13CC8H9Cl2^15N3O) has a monoisotopic mass of 249.0067 Da. These compounds were tested using a whole blood sample with a Blood:Plasma binding ratio (Ke/p) of 1.5 and analyzed using LC-MS/MS bioanalysis following the protocol described here.

[4] = High QC 900 ng/mL, ANOVA p<0.0001

Q: With CNC(C)Cc1ccccc1 (centres unmarked) [Methamphetamine] as the molecule, how does the pKa [1] read?
A: 9.9

Q: Which on-card stability [2, 4] does the source give for COc1ccc2c3c1O[C@H]1C(=O)CC[C@H]4[C@@H](C2)N(C)CC[C@]314 [Hydrocodone] here?
A: significant decompositions

Q: What about the on-card stability ([2]; LLOQ 5 ng/mL, ANOVA) of the same molecule?
A: significant decomposition

Q: Which results are given for CNC(C)C(=O)c1ccc(C)cc1 (centres unmarked) [Mephedrone]?
A: pKa [1]: 9.0; on-card stability [2, 4]: significant decompositions; on-card stability ([2]; LLOQ 5 ng/mL, ANOVA): significant decomposition

Q: What does the source list for COc1ccc2c3c1O[C@H]1C(=O)CC[C@@]4(O)[C@@H](C2)N(C)CC[C@]314 [Oxycodone]?
A: on-card stability [2, 4]: significant decompositions; on-card stability ([2]; LLOQ 5 ng/mL, ANOVA): significant decomposition

Q: With N=C(N)NC(=O)Cc1c(Cl)cccc1Cl [guanfacine] as the molecule, how does the blood plasma ratio [3] read?
A: 1.5

Q: With CC(C)(N)Cc1ccccc1 [Phentermine] as the molecule, how does the pKa [1] read?
A: 10.1

Q: With CNC(C)Cc1ccc2c(c1)OCO2 (centres unmarked) [MDMA, 3,4-methylenedioxymethamphetamine] as the molecule, how does the pKa [1] read?
A: 9.9
